Results taken from patent US12129246B1, “Hydroquinazoline derivatives for the treatment of a disease or disorder” (Novartis AG, priority 2023, dated 2024).
Like-named read-outs stand apart in the source and are kept apart here.

Tests used:
[1] = biological target: monkey NPR1 (Macaca fascicularis, UniProt A0A7N9DBT9); assay: Cellular cGMP production assay, monkey NPR1 expressing CHO-K1 cells (CisBio HTRF); format: cell-based; settings: for Monkey NPR1 Amax (% of ANP): maximum cGMP production as percentage of the maximum cGMP produced with ANP
Sequence of monkey NPR1 (A0A7N9DBT9 entry or part of it): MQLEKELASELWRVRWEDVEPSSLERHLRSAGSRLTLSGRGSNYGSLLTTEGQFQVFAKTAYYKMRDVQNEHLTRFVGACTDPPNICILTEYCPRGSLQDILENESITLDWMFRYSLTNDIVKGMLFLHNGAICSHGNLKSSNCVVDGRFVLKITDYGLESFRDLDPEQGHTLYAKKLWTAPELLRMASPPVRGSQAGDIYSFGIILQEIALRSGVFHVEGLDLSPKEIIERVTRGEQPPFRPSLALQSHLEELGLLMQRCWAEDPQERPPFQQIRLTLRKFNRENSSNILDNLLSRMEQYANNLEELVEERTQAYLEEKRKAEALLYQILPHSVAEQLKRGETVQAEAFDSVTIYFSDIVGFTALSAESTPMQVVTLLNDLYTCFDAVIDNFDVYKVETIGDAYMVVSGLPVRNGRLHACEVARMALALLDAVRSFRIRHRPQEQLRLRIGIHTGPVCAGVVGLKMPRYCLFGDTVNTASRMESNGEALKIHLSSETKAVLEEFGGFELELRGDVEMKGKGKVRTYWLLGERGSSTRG
How it was run: (§1)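 Read-out was HTRF (excitation 317 nm, emission 665 nm), with cGMP quantified as Delta F against a calibrator standard curve. Beforehand, cells were exposed for 30 min at 37 °C to compound (30 μM top, twelve 3-fold steps) in IBMX-containing PBS/BSA buffer, then lysed.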

[2] = biological target: T1, human NPR1 (Homo sapiens, UniProt P16066); assay: Cellular cGMP production assay, human NPR1 expressing CHO-K1 cells (CisBio HTRF); format: cell-based; settings: for AC50: cGMP production, 30 min at 37° C., 12-point dose-response from 30 μM; for Human NPR1 Amax (% of ANP): maximum cGMP production as percentage of the maximum cGMP produced with ANP
T1 construct: host or cells: CHO-K1
T1 sequence (P16066 33-1061): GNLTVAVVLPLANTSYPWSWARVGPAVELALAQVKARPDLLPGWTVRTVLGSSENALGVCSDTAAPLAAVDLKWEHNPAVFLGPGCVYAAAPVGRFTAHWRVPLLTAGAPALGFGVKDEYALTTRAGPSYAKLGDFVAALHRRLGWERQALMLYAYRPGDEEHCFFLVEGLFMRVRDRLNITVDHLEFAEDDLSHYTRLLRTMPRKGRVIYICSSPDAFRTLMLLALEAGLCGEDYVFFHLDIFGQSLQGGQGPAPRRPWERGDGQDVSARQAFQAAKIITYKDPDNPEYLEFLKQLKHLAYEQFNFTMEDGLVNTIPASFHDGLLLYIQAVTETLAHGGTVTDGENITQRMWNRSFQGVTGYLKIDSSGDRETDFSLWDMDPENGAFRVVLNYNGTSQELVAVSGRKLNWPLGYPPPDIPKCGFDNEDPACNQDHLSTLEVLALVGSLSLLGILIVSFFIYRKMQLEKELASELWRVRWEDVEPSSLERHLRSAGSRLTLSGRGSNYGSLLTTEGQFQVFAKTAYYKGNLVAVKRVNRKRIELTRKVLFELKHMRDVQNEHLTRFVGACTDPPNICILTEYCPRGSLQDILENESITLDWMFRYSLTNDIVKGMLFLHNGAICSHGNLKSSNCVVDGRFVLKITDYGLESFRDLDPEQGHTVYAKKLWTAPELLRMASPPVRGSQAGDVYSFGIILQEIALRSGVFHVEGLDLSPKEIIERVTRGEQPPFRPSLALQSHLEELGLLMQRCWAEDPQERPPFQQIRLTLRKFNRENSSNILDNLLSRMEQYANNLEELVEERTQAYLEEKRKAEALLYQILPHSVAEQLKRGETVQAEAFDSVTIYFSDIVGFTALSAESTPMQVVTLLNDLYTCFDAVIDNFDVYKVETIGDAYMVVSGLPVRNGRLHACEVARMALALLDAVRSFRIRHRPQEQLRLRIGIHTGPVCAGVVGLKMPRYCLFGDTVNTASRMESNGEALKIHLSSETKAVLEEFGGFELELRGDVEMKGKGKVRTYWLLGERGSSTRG
How it was run: as §1

[3] = cGMP production, monkey NPR1 CHO-K1 cells, 30 min at 37° C., 12-point dose-response from 30 μM, read-out: Monkey NPR1 AC50

| Structure (SMILES) | AC50 [1, 3] [nM] | Monkey NPR1 Amax (% of ANP) ([1]; monkey NPR1 CHO-K1 cells) | AC50 [2] [nM] | Human NPR1 Amax (% of ANP) [2] | AC50 [1] [nM] |
| --- | --- | --- | --- | --- | --- |
| CC[C@@H](Nc1nc2c(c(N[C@@H](CN3CCCCCC3)c3cnn(CC)c3)n1)C[C@H](c1ccccc1)CC2)[C@H]1CC[C@H](C(=O)O)CC1 [Compound 94, (1R,4r)-4-((R)-1-(((R)-4-(((R)-2-(azepan-1-yl)-1-(1-ethyl-1H-pyrazol-4-yl)ethyl)amino)-6-phenyl-5,6,7,8-tetrahydroquinazolin-2-yl)amino)propyl)cyclohexane-1-carboxylic acid] | 226 | 105.567 % of ANP | 326 | 101.620 % of ANP |  |
| CC[C@H]([C@H]1CC[C@H](C(=O)O)CC1)N(C)c1nc2c(c(N[C@@H](CN3C4CCCC3CC4)c3cnn(C)c3)n1)C[C@H](c1cccc(F)c1)CC2 [Compound 33, (1R,4r)-4-((1R)-1-(((6R)-4-(((1R)-2-(8-azabicyclo[3.2.1]octan-8-yl)-1-(1-methyl-1H-pyrazol-4-yl)ethyl)amino)-6-(3-fluorophenyl)-5,6,7,8-tetrahydroquinazolin-2-yl)(methyl)amino)propyl)cyclohexane-1-carboxylic acid] |  | 106.934 % of ANP | 145 | 99.163 % of ANP | 104 |
| CC[C@H]([C@H]1CC[C@H](C(=O)O)CC1)N(C)c1nc2c(c(N[C@@H](CN3CCC4CC4C3)c3cnn(C)c3)n1)C[C@H](c1ccccc1)CC2 (stereo partly drawn) [Compound 78, (1R,4r)-4-((1R)-1-(((6R)-4-(((1R)-2-(3-azabicyclo[4.1.0]heptan-3-yl)-1-(1-methyl-1H-pyrazol-4-yl)ethyl)amino)-6-phenyl-5,6,7,8-tetrahydroquinazolin-2-yl)(methyl)amino)propyl)cyclohexane-1-carboxylic acid] | 212 | 102.158 % of ANP | 254 | 99.406 % of ANP |  |
| CC[C@H]([C@H]1CC[C@H](C(=O)O)CC1)N(C)c1nc2c(c(N[C@@H](CN3CCC[C@H](C)C3)c3ccc(=O)n(C)c3)n1)C[C@H](c1cccc(F)c1)CC2 [Compound 53, (1R,4r)-4-((R)-1-(((R)-6-(3-fluorophenyl)-4-(((R)-1-(1-methyl-6-oxo-1,6-dihydropyridin-3-yl)-2-((S)-3-methylpiperidin-1-yl)ethyl)amino)-5,6,7,8-tetrahydroquinazolin-2-yl)(methyl)amino)propyl)cyclohexane-1-carboxylic acid] | 101 | 101.261 % of ANP | 190 | 101.185 % of ANP |  |
| CC(Nc1nc2c(c(N[C@@H](CN3CCCC3)c3ccccc3)n1)CC(c1ccccc1)CC2)[C@H]1CC[C@H](C(=O)O)CC1 (stereo partly drawn) [Compound 158, (1S,4r)-4-((1S)-1-((6-phenyl-4-(((R)-1-phenyl-2-(pyrrolidin-1-yl)ethyl)amino)-5,6,7,8-tetrahydroquinazolin-2-yl)amino)ethyl)cyclohexane-1-carboxylic acid] | 1270 | 165.777 % of ANP | 1430 | 109.837 % of ANP |  |
| CC[C@@H](N(C)c1nc2c(c(N[C@@H](CN3C4CCCC3CC4)c3cnn(CC)c3)n1)C[C@H](c1cccc(F)c1)CC2)C12CC(C(=O)O)(C1)C2 [Compound 42, 3-((1R)-1-(((6R)-4-(((1R)-2-(8-azabicyclo[3.2.1]octan-8-yl)-1-(1-ethyl-1H-pyrazol-4-yl)ethyl)amino)-6-(3-fluorophenyl)-5,6,7,8-tetrahydroquinazolin-2-yl)(methyl)amino)propyl)bicyclo[1.1.1]pentane-1-carboxylic acid] |  | 101.138 % of ANP | 169 | 92.080 % of ANP | 146 |
